Structures are written as SMILES. Numbered stars: 1 amine (or outer) side, 2 acyl side, 3 side chain; on linkers, the order of the positions; unused ones are H or OH. Bridge positions count the residues as written; N and C are the ends. Square brackets hold non-standard residues; d marks the D form. Side chains are listed from the residue outwards. Peptide text beside a SMILES is read from it. * marks the point of attachment. Trp(1-Me) = Cn1cc(C[C@H](N)C(=O)O)c2ccccc21; C18 diacid = O=C(O)CCCCCCCCCCCCCCCCC(=O)*; γGlu = O=C(O)[C@H](CCC(=O)[*:2])N[*:1]; AEEA = NCCOCCOCC(=O)O; CH2 = C([*:1])[*:2]; Sar = CNCC(=O)O

The test system of this experiment is classical complement pathway. Briefly: In vitro haemolysis assay (inhibition of classical complement pathway). The note with it: human serum, sensitized sheep RBC, 30 minutes at 37° C., absorbance at 405 nm, n=>2; read-out: IC50, inhibition of hemolysis. The class given is cell-based. Here is the method:
The in vitro effect of some of the compounds described herein was assessed by measuring their inhibitory effect of the classical complement pathway in a haemolysis assay.
Briefly, compounds described herein and reference compounds were dissolved in DMSO and diluted in Tris/Casein Assay Buffer (10 mM Tris, 145 mM NaCl, 0.5 mM MgCl2, 0.15 mM CaCl2, and 0.1% W/V casein, adjusted to pH 7.4) as 9-point serial dilutions in a 96-well plate. Sensitized sheep red blood cells (RBC) coated with rabbit anti-sheep erythrocyte antiserum (Complement Technology, Inc., TX, USA) were washed in Tris/asein Assay Buffer. 50 μL from each well of diluted compound was added to a 96-well plate containing 50 μL diluted human serum (Complement Technology, Inc., TX, USA) and incubated for 15 minutes at room temperature. The serum dilution factor was optimized for every serum batch to obtain 70-90% of maximal haemolysis using the protocol. Then 50 μL sensitized sheep RBCs were added to all wells ([…]).
After 30 minutes of incubation at 37° C. with gentle agitation, the reaction was stopped by addition of 50 μL Tris STOP Buffer per well (10 mM EDTA, 10 mM Tris, 145 mM NaCl adjusted to pH 7.4). The RBCs were then removed by centrifugation and the resulting supernatant measured for hemolysis by absorbance at 405 nm.
The response was normalized relative to a positive and negative control (vehicle) to calculate the IC50 (nM) from the concentration response curve using the 4-parameter logistic (4PL) nonlinear model for curve fitting (Table 2). All values are based on n=>2 independent determinations.
Consider `CC[C@H](C)[C@@H]1NC(=O)[C@@H](NC(=O)[C@@H](NC(=O)[C@@H](Cc2ccc(O)cc2)NC(C)=O)[C@@H](C)CC)CSCSC[C@@H](C(=O)N[C@H](C(=O)N[C@@H](CCC(=O)O)C(=O)NCC(=O)N[C@@H](CCC(=O)O)C(=O)NCCOCCOCC(=O)N[C@@H](CCC(=O)O)C(=O)N[C@@H](CO)C(=O)N[C@@H](CCCCNC(=O)CC[C@H](NC(=O)CCCCCCCCCCCCCCCCC(=O)O)C(=O)O)C(N)=O)[C@@H](C)O)NC(=O)[C@H](CCCNC(=N)N)NC(=O)[C@H](Cc2c[nH]cn2)NC(=O)[C@H](CCC(=O)O)NC(=O)CN(C)C(=O)[C@H](Cc2c[nH]c3ccccc23)NC(=O)[C@H](CC(=O)O)NC(=O)[C@H](CCC(N)=O)NC(=O)[C@H](Cc2cn(C)c3ccccc23)NC1=O` [Compound 15, Ac-{d}YI[C(1)]I[1-Me-Trp]QDW[Sar]EHR[C(1)]TEGE[Peg3]ES-K([17-Carboxy-heptadecanoyl][yGlu])-NH2] (Ac-[dY]ICI[Trp(1-Me)]QDW[Sar]EHRCTEGE[AEEA]ESK([γGlu-C18 diacid])-NH2; linker 3-13 via CH2), for which the 50% inhibitory concentration (IC50) is < 250 nM.

`CC[C@H](C)[C@@H]1NC(=O)[C@@H](NC(=O)[C@H](Cc2ccccc2)NC(=O)[C@@H](NC(=O)[C@H](CCC(N)=O)NC(=O)[C@H](CCC(=O)O)NC(=O)[C@H](CO)NC(=O)[C@H](CCC(=O)O)NC(C)=O)C(C)C)CSCSC[C@@H](C(=O)N[C@H](C(=O)N[C@@H](CCC(=O)O)C(=O)NCC(=O)N[C@@H](CCC(=O)O)C(=O)NCCOCCOCC(=O)NCCOCCOCC(=O)N[C@@H](CCCCNC(=O)CC[C@H](NC(=O)CNC(=O)CC[C@H](NC(=O)CCCCCCCCCCCCCCCCC(=O)O)C(=O)O)C(=O)O)C(N)=O)[C@@H](C)O)NC(=O)[C@H](CCCNC(=N)N)NC(=O)[C@H](Cc2c[nH]cn2)NC(=O)[C@H](CCC(=O)O)NC(=O)CN(C)C(=O)[C@H](Cc2c[nH]c3ccccc23)NC(=O)[C@H](CC(=O)O)NC(=O)[C@H](CCC(N)=O)NC(=O)[C@H](Cc2cn(C)c3ccccc23)NC1=O` [Compound 24, Ac-ESEQVF[C(1)]I[1-Me-Trp]QDW[Sar]EHR[C(1)]TEGE[Peg3][Peg3]-K([17-Carboxy-heptadecanoyl][yGlu]G[yGlu])-NH2] (Ac-ESEQVFCI[Trp(1-Me)]QDW[Sar]EHRCTEGE[AEEA][AEEA]K([γGlu-Gly-γGlu-C18 diacid])-NH2; linker 7-17 via CH2): the IC50 is < 100 nM.

With `CC[C@H](C)[C@@H]1NC(=O)[C@@H](NC(=O)[C@H](Cc2ccccc2)NC(=O)[C@H](CCC(=O)O)NC(=O)[C@H](CO)NC(C)=O)CSCSC[C@@H](C(=O)N[C@H](C(=O)NCC(=O)N[C@@H](C)C(=O)N[C@@H](CCC(=O)O)C(=O)N[C@@H](CO)C(N)=O)[C@@H](C)O)NC(=O)[C@H](CCCNC(=N)N)NC(=O)[C@H](Cc2c[nH]cn2)NC(=O)[C@H](CCC(=O)O)NC(=O)CNC(=O)[C@H](Cc2c[nH]c3ccccc23)NC(=O)[C@H](CC(=O)O)NC(=O)[C@H](CCC(N)=O)NC(=O)[C@H](Cc2cn(C)c3ccccc23)NC1=O` [Compound 1, Ac-SEF[C(1)]I[[1-Me-Trp]QDWGEHR[C(1)]TGAES-[NH2]] (Ac-SEFCI[Trp(1-Me)]QDWGEHRCTGAES-NH2; linker 4-14 via CH2), the 50% inhibitory concentration (IC50) was < 100 nM.

Take `CC[C@H](C)[C@@H]1NC(=O)[C@@H](NC(=O)[C@H](Cc2ccccc2)NC(=O)[C@H](CCC(=O)O)NC(=O)[C@H](CO)NC(C)=O)CSCSC[C@@H](C(=O)N(C)CC(=O)N[C@@H](CCC(=O)O)C(=O)NCCOCCOCC(=O)NCCOCCOCC(=O)N[C@@H](CCCCNC(=O)CC[C@H](NC(=O)CNC(=O)CC[C@H](NC(=O)CCCCCCCCCCCCCCCCC(=O)O)C(=O)O)C(=O)O)C(N)=O)NC(=O)[C@H](CCCNC(=N)N)NC(=O)[C@H](Cc2c[nH]cn2)NC(=O)[C@H](CCC(=O)O)NC(=O)CN(C)C(=O)[C@H](Cc2c[nH]c3ccccc23)NC(=O)[C@H](CC(=O)O)NC(=O)[C@H](CCC(N)=O)NC(=O)[C@H](Cc2cn(C)c3ccccc23)NC1=O` [Compound 7] (Ac-SEFCI[Trp(1-Me)]QDW[Sar]EHRC[Sar]E[AEEA][AEEA]K([γGlu-Gly-γGlu-C18 diacid])-NH2; linker 4-14 via CH2): the IC50 is < 500 nM.
